Reference: US6610501B2, “Porcine protein and uses thereof” (New York Blood Center, Inc., priority 1999, dated 2003)

Legend:
Assay type in all cases: cell-based, porcine
pRBCs [1] = details: 1 mg/ml trisaccharide, time course experiment at 37° C.; FIG. 5
From the text: FIG. 3 represents the procedure for measuring human complement-mediated hemolysis. The procedure is outlined in panel B. Hemolysis (A) is plotted as percent lysis versus volume of human serum added (μl). Lysis is defined as (OD-ODo)/(OD100−ODo), where OD represents the amount of lysis, as measured by the absorbance at 541 nm, ODo is the absorbance at 541 nm that is due to spontaneous lysis in the absence of any additions, and OD100 is the absorbance at 541 nm that is due to 100% lysis of red cells under the experimental conditions. […]
The hemolysis was monitored up to 4 hr. […]
In blood transfusions between humans, mismatched red cells undergo intravascular destruction by the same mechanism as complement-induced hemolysis observed in vitro. […] Since this serum was derived from type B individuals, as determined by hemagglutination assays, we used only non-type A pRBCs in the complement assays to exclude the binding of anti-A antibody present in the serum.
The human serum (between 3-18 μl) was mixed with 40 μl of 5% pRBCs (about 2×10^7 cells) in a total volume of 210 μl. […] Hemoglobin molecules released from the lysed cells into the supernatant were quantitated by measuring the absorbance at 541 nm. […]
We also measured the time course for complement-mediated hemolysis of pRBCs (FIG. 5). […]

pRBCs [2] = test: Flow cytometry analysis of binding of human xenoreactive antibodies to pRBCs
Description: FIG. 7 represents the effect of the trisaccharide of FIG. 4 on the binding of fractions S1 and S2 to pRBCs. 40 μl of the trisaccharide (2 mg/ml) was added to 2 μl of S1 or S2 plus 38 μl of PBS (final concentration of trisaccharide 1 mg/ml), followed by incubation at 4° C. overnight. pRBCs were then added and flow cytometry analysis performed, using anti-human IgG (H+L) conjugated with phycoerythrin (PE) as the secondary antibody. Sample 1: negative control lacking the primary and secondary antibodies. Sample 2: negative control containing the secondary antibody only. Samples 3 and 4: fraction S1 without and with the trisaccharide of FIG. 4, respectively. Samples 5 and 6: fraction S2 without and with the trisaccharide of FIG. 4, respectively.
FIG. 8 represents the effect of concentration of the trisaccharide of FIG. 4 on the binding of S1 to pRBCs. Fraction S1 was incubated with various amounts of the trisaccharide under the same conditions described in […]. The binding of IgG (curve 1) and IgM (curve 2) molecules from fraction S1 was monitored by flow cytometry, using anti-human IgG and anti-human IgM, respectively. The data from the flow cytometry analyses were plotted as mean fluorescent intensity (MFI) versus the final concentration of trisaccharide, and the curves were generated by nonlinear curve fitting.
FIG. 9 represents the effect of the trisaccharide of FIG. 4 on the binding of anti-αGal and non-αGal antibodies to pRBCs. The control samples (1 and 2) were as described for FIG. 7. (A): anti-αGal antibody incubated in the absence (curve 3) or presence (curve 4) of the trisaccharide (1 mg/ml). (B): Non-αGal antibodies incubated in the absence (curve 3) or presence (curve 4) of the trisaccharide (1 mg/ml). […]
Various fractions derived from human serum were analyzed by flow cytometry. […]
To directly detect non-anti-αGal antibodies from the S2 fraction, we isolated these antibodies by using a pRBC absorption/elution method. The eluted fraction (non-αGal antibodies) was then measured for its binding to pRBCs in the presence or absence of the trisaccharide. […]

pRBCs [3] = test: Effect of ssDNA and thyroglobulin on S1- or S2-induced hemagglutination of pRBCs; details: final concentration 1 mg/ml, 4° C. 3 hr
From the text: To determine whether the xenoreactive antibodies that we characterized in the binding of pRBCs are polyreactive, we tested the effect of ssDNA and thyroglobulin on binding of antibodies by hemagglutination assays and flow cytometry analyses (Turman M A, Casali P, Notkins A L, Bach F H, and Platt J L (1991) Transplantation 52:710-717). To ensure that the xenoreactive antibodies were not present in excess, we titrated the amount of antibodies used in the hemagglutination assays and chose the dilution that produced an intermediate strength (2+ or 3+) for inhibition. Fraction S1 or S2 was pre-incubated with ssDNA or thyroglobulin (final concentration 1 mg/ml) at 4° C. for 3 hr before adding pRBCs for the hemagglutination assay.

Compound	inhibition of cell lysis (pRBCs [1])	inhibition of anti-αGal antibody in normal human serum (pRBCs [2]; trisaccharide 1 mg/ml, flow cytometry)	inhibition of IgG versus IgM binding of S1 to pRBCs (pRBCs [2]; various trisaccharide concentrations, FIG. 8)	inhibitory effect on S1- or S2-induced hemagglutination (pRBCs [3])	effect on binding of xenoreactive antibodies to pRBCs (pRBCs [2]; pre-incubation at 0.01, 0.1 or 1.0 mg/ml, FIG. 11)
CC(=O)N[C@H]1C(O)O[C@H](CO)[C@@H](O[C@@H]2O[C@H](CO)[C@H](O)[C@H](O[C@H]3O[C@H](CO)[C@H](O)[C@H](O)[C@H]3O)[C@H]2O)[C@@H]1O (some centres unmarked) [trisaccharide, Galα1,3Galβ1,4GlcNAc]	approximately 50%	completely inhibited	inhibit IgG binding more efficiently than IgM binding	–	–
thyroglobulin: thyroglobulin used to test polyreactivity of the antibodies	–	–	–	neither ssDNA nor thyroglobulin showed any inhibitory effect	little affected, if any
